{"source": "patent US5158939A", "about": "“Method of stimulating the immune systems of animals and compositions useful therefor” (priority 1990, dated 1992)", "key": {"[1]": {"test_system": "RAW 264.7 murine macrophage cells", "experiment": "Cachectin/TNF production by RAW 264.7 cells, immunoblot", "assay_type": "cell-based", "details": "other lipid A analogs and precursors", "method": "For the […] to activate the RAW 264.7 murine macrophage cell line, we chose the toxic deep rough chemotype LPS (ReLPS) from Escherichia coli D31m4, which was recently purified and characterized^15. […] This is a clear example of a lipid A derivative showing strong antagonism against a toxic agonist in the induction of cachectin.\nThe immunoblot method was used to quantitate the cachectin/TNF production by RAW 264.7 murine macrophage cells. RAW 264.7 cells^4,16 were seeded in 24-well plates (Nunc) at a density of 3×10^5 cells/well in Dulbecco's modified Eagle's medium supplemented with 5 percent fetal calf serum. After 12 hours, cell monolayers were washed twice with 1 ml of serum-free medium and then left covered with […] of the same. An aqueous suspension of DPLA and/or ReLPS was then added to a final concentration indicated. Cells were incubated for 12 hours, after which the medium was removed for measurement of TNF by immunoblotting. One hundred μl of medium was mixed with 100 μl of SDS-containing sample buffer, heated to 100° C. for 5 minutes, and subjected to electrophoresis in a 10-15% polyacrylamide gradient gel. Proteins were then transferred to nitrocellulose electrophoretically, and TNF was visualized through the use of a rabbit anti-mouse TNF polyclonal serum^3,5 applied at a 1:100 dilution, followed by alkaline phosphatase-conjugated goat anti-rabbit IgG (Bio-Rad).\nBands were visualized using nitroblue tetrazolium. Approximately 0.1 ng of cachectin/TNF may be detected as a band. The antiserum also recognized the processing intermediates (prohormones) on Western blot."}, "[2]": {"details": "large excess of lipid X; cited from earlier work"}, "neutrophil": {"test_system": "neutrophil", "details": "literature; cited from earlier work"}, "70Z/3 cells": {"test_system": "70Z/3 cells", "details": "background; cited from earlier work"}}, "data": [{"compound": "CCCCCCCCCCC[C@@H](O)CC(=O)N[C@H]1[C@@H](OP(=O)(O)O)O[C@H](CO)[C@@H](O)[C@@H]1OC(=O)C[C@H](O)CCCCCCCCCCC", "note": "[lipid X]", "values": [{"measurement": "induction of cachectin in RAW cells (immunoblot)", "setting": "[1]", "value": "caused the induction of cachectin"}, {"measurement": "blocking of toxic effects of lipid A", "setting": "[2]", "value": "partially blocking its toxic effects"}, {"measurement": "inhibition of LPS-induced neutrophil priming", "setting": "neutrophil", "value": "inhibit the LPS-induced neutrophil priming"}, {"measurement": "activity in stimulating 70Z/3 cells", "setting": "70Z/3 cells", "value": "some activity in stimulating 70Z/3 cells"}]}, {"compound": "CCCCCCCCCCC[C@@H](O)CC(=O)N[C@H]1[C@H](OC[C@H]2O[C@H](OP(=O)(O)O)[C@H](NC(=O)C[C@H](O)CCCCCCCCCCC)[C@@H](OC(=O)C[C@H](O)CCCCCCCCCCC)[C@@H]2O)O[C@H](CO)[C@@H](OP(=O)(O)O)[C@@H]1OC(=O)C[C@H](O)CCCCCCCCCCC", "note": "[precursor IVA, reference compound]", "values": [{"measurement": "induction of cachectin in RAW cells (immunoblot)", "setting": "[1]", "value": "caused the induction of cachectin"}]}, {"compound": "CCCCCCCCCCC[C@@H](O)CC(=O)N[C@H]1[C@@H](OP(=O)(O)O)O[C@H](CO)[C@@H](O)[C@@H]1NC(=O)C[C@H](O)CCCCCCCCCCC", "note": "[3-aza-lipid X]", "values": [{"measurement": "inhibition of LPS-induced neutrophil priming", "setting": "neutrophil", "value": "inhibit the LPS-induced neutrophil priming"}]}, {"compound": "monophosphoryl lipid A [reference compound]", "values": [{"measurement": "induction of cachectin in RAW cells (immunoblot)", "setting": "[1]", "value": "caused the induction of cachectin"}]}]}
